US11584710B2, “Compounds for treating infections” (HORITZONTS TECNOLOGICS HUNGARY KORLÁTOLT FELELOSSÉGU …, priority 2017, dated 2023)

Columns and labels:
Assay type in all cases: cell-based
A. baumannii = test: Kirby-Bauer disk diffusion susceptibility test; conditions: 300 μg/disc
Method: (§1) Bacterial strains, from clinical origin, were supplied by the National Center for Microbiology, Institute of Health Carlos III (Majadahonda, Madrid). They are detailed in Table 1.
(§2) Bacterial cells suspension in sterile saline was prepared from a culture of 24-72 h, depending on bacterial species, in Mueller-Hinton Agar with 5% sheep blood. Each suspension was adjusted to a fixed size inoculum of 1-5×10^8 CFU/ml with a spectrophotometer (Ferraro, MJ National Committee for Clinical Laboratory Standards. 2000).
(§3) Kirby-Bauer disk diffusion susceptibility test protocol was utilized to determine the sensitivity or resistance of pathogenic bacteria against the compounds and others antibiotics. The absence of growth around the disks is an indirect measure of the ability of this compound to inhibit an organism (Kirby, W., et al., Antibiotics Annu. 1956-1957:892). After 18 to 72 hours of incubation at 37° C., with or without CO2, under aerobic or anaerobic conditions, depending on the bacterial species, halo of growth inhibition were obtained and evaluated.
(§4) Interpretation of susceptibility and resistance was based on the presence or absence of a zone of inhibition surrounding the disk. Kirby-Bauer disk diffusion susceptibility test is a common method which uses antibiotic-impregnated wafers to test whether bacteria are affected by antibiotics. The size of the zone of inhibition depends on how effective the antibiotic is at stopping the growth of the bacterium. A stronger antibiotic will create a larger zone, because a lower concentration of the antibiotic is enough to stop growth.
(§5) All compounds were tested at 300 μg/disc.

P. aeruginosa = test: Kirby-Bauer disk diffusion susceptibility test; conditions: 300 μg/disc
Method: as §1, §2, §3, §4, §5

A. flavus = test: Antifungal disk diffusion susceptibility test (CLSI M44); conditions: Aspergillus flavus, A. flavus
Method: (§6) Filamentous fungi and yeasts strains, from clinical origin, were supplied by Microbiology Service from The Princess Hospital, Madrid. They are detailed in Table IX.
(§7) Filamentous fungi and yeast cells suspensions in distilled water was prepared from a culture of 24-48 h, depending on species, in Sabouraud agar. Each suspension was adjusted to a fixed size inoculum of 1-5×10^8 CFU/ml with a spectrophotometer (Ferraro, MJ National Committee for Clinical Laboratory Standards. 2000).
(§8) Antifungal susceptibility tests were developed following the standardized methodology detailed in document CLSI: M44-4: Method for Antifungal Disk diffusion susceptibility testing of yeasts consisting of disk diffusion on agar Muller-Hinton (supplemented with 2% glucose).

A. fumigatus = test: as above; conditions: Aspergillus fumigatus, A. fumigatus
Method: as §6, §7, §8

A. niger = test: as above; conditions: Aspergillus niger, A. niger
Method: as §6, §7, §8

A. terreus = test: as above; conditions: Aspergillus terreus, A. terreus
Method: as §6, §7, §8

C. albicans = test: as above; conditions: Candida albicans, C. albicans
Method: as §6, §7, §8

C. guillermondii = test: as above; conditions: C. guillermondii
Method: as §6, §7, §8

C. lusitaniae = test: as above; conditions: Clavispora lusitaniae, C. lusitaniae
Method: as §6, §7, §8

C. parapsilosis = test: as above; conditions: Lodderomyces parapsilosis, C. parapsilosis
Method: as §6, §7, §8

C. tropicalis = test: as above; conditions: Candida tropicalis, C. tropicalis
Method: as §6, §7, §8

S. cerevisiae = test: as above; conditions: Saccharomyces cerevisiae, S. cerevisiae
Method: as §6, §7, §8

HIV = test: Anti-HIV assay, recombinant virus with Renilla reporter gene in MT-2 cells; conditions: Human immunodeficiency virus 1, MT2, read-out: IC50 VIH MT-2 μM
Description: Assessment of in vitro antiviral activity is usually performed to estimate parameters of antiviral potency and efficacy represented by the percentage of inhibition of HIV activity or IC50. The assay utilized is based on the use of recombinant viruses in which the nef gene, […] for in vitro HIV replication, has been replaced by a Renilla reporter gene so that viral replication can be quantified directly (García-Perez J et al, J Med Virol. 2007 February; 79(2):127-37). The assay was performed infecting MT-2 cells or PHA-activated PBMCs/IL-2 with viral supernatants obtained previously. The study was development in AIDS Immunopathology Unit, Nacional Center of Microbiology, Institute of Health Carlos 111, Majadahonda, Madrid, Spain.
All data are expressed as percentage relative to a control with DMSO at the same concentration. Antiviral activity and toxicity curves were performed to the compound at different concentrations.

[1] = Cellular viability, CellTiter Glo; conditions: human; MT-2 cells; concentration required to kill 50% of cells; read-out: CC50 VIH MT-2 μM
Method: All assays for assessing anti-HIV activity were taken in parallel to determine cellular viability of the culture in the presence or absence of different concentrations of the isolated molecule. It was followed exactly the same methodology as in the anti-HIV assay except with the addition of complete DMEM medium instead of supernatant viral, in the same proportion, and the detection of the viability was performed with the viability detection kit CellTiter Glo (Promega), following manufacturer instructions. Viability is directly proportional to the luciferase activity obtained. All data are expressed as percentage relative to a control with DMSO at the same concentration. Antiviral activity and toxicity curves were performed to the compound at different concentrations.

With `NNC(=O)C(=O)NNc1ccccc1` [MSG-119] the “Activity detected (mm)” value (A. baumannii) was 20 mm, the “Activity detected (mm)” value (P. aeruginosa) was 15 mm and the zone of inhibition at 150 µg/disc (A. flavus; 150 μg/disc) was 18 mm. The zone of inhibition at 500 µg/disc (A. flavus; 500 μg/disc) was over 40 mm, the zone of inhibition at 150 µg/disc (A. fumigatus; 150 μg/disc) was 22 mm and the zone of inhibition at 500 µg/disc (A. fumigatus; 500 μg/disc) was over 40 mm. It also gave a zone of inhibition at 150 µg/disc (A. niger; 150 μg/disc) of 24 mm, a zone of inhibition at 500 µg/disc (A. niger; 500 μg/disc) of over 40 mm and a zone of inhibition at 150 µg/disc (A. terreus; 150 μg/disc) of 20 mm. For the same molecule, the zone of inhibition at 500 µg/disc (A. terreus; 500 μg/disc) was over 40 mm, the zone of inhibition at 150 µg/disc (C. albicans; 150 μg/disc) was 21 mm and the zone of inhibition at 500 µg/disc (C. albicans; 500 μg/disc) was 24 mm. The zone of inhibition at 150 µg/disc (C. guillermondii; 150 μg/disc) was 12 mm, the zone of inhibition at 500 µg/disc (C. guillermondii; 500 μg/disc) was over 40 mm and the zone of inhibition at 150 µg/disc (C. lusitaniae; 150 μg/disc) was under 10 mm. For the same molecule, the zone of inhibition at 500 µg/disc (C. lusitaniae; 500 μg/disc) was 20 mm, the zone of inhibition at 150 µg/disc (C. parapsilosis; 150 μg/disc) was 15 mm and the zone of inhibition at 500 µg/disc (C. parapsilosis; 500 μg/disc) was over 40 mm. For the same molecule, the zone of inhibition at 150 µg/disc (C. tropicalis; 150 μg/disc) was 20 mm, the zone of inhibition at 500 µg/disc (C. tropicalis; 500 μg/disc) was over 40 mm and the zone of inhibition at 150 µg/disc (S. cerevisiae; 150 μg/disc) was 26 mm. It also gave a zone of inhibition at 500 µg/disc (S. cerevisiae; 500 μg/disc) of 35 mm, an IC50 (HIV) of 7.11 µM and a CC50 [1] of over 100 µM.
